Reference: ChEMBL document CHEMBL1201862, “PubChem BioAssay data set” (2004)
Calls of active or inactive are those of the source.

Key:
[1] = control 3'UTR Renilla luciferase suppression, dose response, counter-screen for Shn3 inhibitor project, cell-based, Clone20-Shn3RL, cherry-picked (AID 624133); format: functional
[2] = Shn3 3'UTR reporter inhibitors, dose response, cell-based, Clone20 osteoblasts, firefly luciferase, cherry-picked (AID 624132); format: functional;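 note: firefly luciferase luminescence from reporter carrying the Shn3 3'UTR in osteoblasts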
[3] = reduction of Shn3 3'UTR firefly luciferase signal, dose response, Schnurri-3 inhibitor project, cell-based, Clone20 osteoblasts, cherry-pick, set 2 (AID 720490); format: functional;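 note: actives lower the luminescence signal as inhibitors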
[4] = HepG2 cell cytotoxicity, dose response, cytotoxicity control for Shn3 inhibitor project, CellTiter-Glo, cherry-picked (AID 624134); format: functional, cell-based
Galanin receptor type 3 = Galanin receptor type 3 (Homo sapiens, UniProt O60755); assay: Fluorescence-based cell-based primary high throughput dose response assay to identify antagonists of the Galanin Receptor 3 (GalR3).; format: functional
Chain of Galanin receptor type 3 (O60755 whole entry): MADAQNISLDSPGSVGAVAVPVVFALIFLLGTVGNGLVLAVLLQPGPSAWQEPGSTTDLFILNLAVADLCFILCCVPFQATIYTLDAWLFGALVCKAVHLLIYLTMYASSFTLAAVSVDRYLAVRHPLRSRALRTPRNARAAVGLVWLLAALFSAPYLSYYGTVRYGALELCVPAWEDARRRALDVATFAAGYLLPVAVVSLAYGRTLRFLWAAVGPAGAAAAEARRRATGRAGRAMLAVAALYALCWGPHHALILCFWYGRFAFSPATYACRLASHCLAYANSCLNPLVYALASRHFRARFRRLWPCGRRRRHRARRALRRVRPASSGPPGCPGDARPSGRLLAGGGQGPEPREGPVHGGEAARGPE

[5] = cytotoxicity in HEK-293T cells, dose response, cytotoxicity control for TCR NF-kB inhibitor project, luminescence, T-cell screen hits (AID 489026); format: functional, cell-based;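 note: cells exposed to compound about 14 hours before the viability readout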
[6] = C. albicans growth with fluconazole, confirmation, fluorescence, retest (AID 2467); format: functional, cell-based
[7] = NIH-3T3 fibroblast cytotoxicity, dose response, cytotoxicity control, cell-based, fluorescence, Alamar Blue, secondary assay (AID 2327); format: functional;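 note: NIH-3T3 mouse fibroblasts cultured with fluconazole at 8 µg/mL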
[8] = target: Heat shock protein HSP 90-alpha (Homo sapiens, UniProt P07900); format: functional, organism-based
cells = format: functional, cell-based; conditions: HEK-CNG
[9] = HEK293 Cytotoxicity Assay Measured in Cell-Based System Using Plate Reader - 7071-01_Inhibitor_Dose_CherryPick_Activity_Set2.; format: functional
HEK293 = assay: HEK293T cell cytotoxicity, dose response, cytotoxicity control, ATP luminescence, cherry-pick samples (AID 687005); format: functional, cell-based; conditions: Homo sapiens;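 note: cells exposed to compound for 48 hours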
[10] = MC4R antagonists, dose response, counter-screen for LGR2 antagonist project, cell-based, plate reader, cherry pick (AID 743444); format: functional;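 note: transfected HEK 293 cells stimulated with alpha-MSH peptide; potency of inhibitors of the alpha-MSH evoked signal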
[11] = CEM21 lymphoblast cell cytotoxicity, dose response, cytotoxicity control for viral fusion inhibitor project, CellTiter-Glo luminescence, cherry-picked (AID 652042); format: functional, cell-based;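 note: potency for signal decrease meaning cytotoxicity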
[12] = LGR2 antagonists, dose response, cell-based, HEK293, CRE-luciferase reporter, cherry pick, set 2 (AID 743343); format: functional;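 note: transfected cells were stimulated with diluted bursicon conditioned medium after compound addition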
Melanocortin receptor 4 = Melanocortin receptor 4 (Homo sapiens, UniProt P32245); assay: MC4R antagonist potency on cAMP, dose response, cell-based, TR-FRET, biased antagonists (AID 602298); format: functional;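 note: antagonist potency against agonist-stimulated cAMP production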
Chain of Melanocortin receptor 4 (P32245 whole entry, the tested form may be a part): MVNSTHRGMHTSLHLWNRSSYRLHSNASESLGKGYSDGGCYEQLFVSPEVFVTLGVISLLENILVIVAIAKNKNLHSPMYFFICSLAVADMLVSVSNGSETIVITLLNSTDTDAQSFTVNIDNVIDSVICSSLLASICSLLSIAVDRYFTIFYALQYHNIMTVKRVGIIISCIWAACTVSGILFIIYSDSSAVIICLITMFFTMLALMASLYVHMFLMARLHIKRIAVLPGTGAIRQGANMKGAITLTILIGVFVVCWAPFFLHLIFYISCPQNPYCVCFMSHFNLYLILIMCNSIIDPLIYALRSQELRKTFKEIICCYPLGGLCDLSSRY

[13] = inhibitors of clade B AD8 Env fusion, dose response, cell-based, cherry-pick (AID 652062); format: functional;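 note: luciferase signal from cell-cell fusion driven by HIV-1 clade B AD8 Env; potency is for inhibitors of fusion seen as a drop in luminescence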
[14] = off-target signal loss in HeLa-CEM21 co-culture – HeLa F-luc CTL cells, cherry-picked, counter-screen for HIV-1 Env fusion inhibitor project, dose response (AID 652040); format: functional, cell-based;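 note: potency for signal decrease marking cytotoxic or nonspecific inhibition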
[15] = cytotoxicity in HEK-293T NF-kB-Luc cells, dose response, cytotoxicity control for B/T-cell NF-kB inhibitor project, cell-based, uHTS hits (AID 489019); format: functional;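 note: IC50 reflects cytotoxicity as loss of cell viability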
[16] = A549 cell cytotoxicity, dose response, cytotoxicity control, plate reader, cherry-pick, antagonist series (AID 743412); format: functional, cell-based
Jurkat = assay: antigen receptor-induced NF-kB inhibitors, dose response, Jurkat, luciferase reporter, luminescence, B- and T-cell (AID 489004); format: functional, cell-based; conditions: Homo sapiens;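 note: NF-kB luciferase reporter Jurkat cells stimulated with PMA plus ionomycin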
[17] = ZM109 Env clade C HIV-1 fusion inhibitors, dose response, HeLa effector, CEM target cells, luciferase, cherry-pick (AID 652058); format: functional, cell-based
[18] = inhibitors of HIV Env-driven cell fusion, dose response, cherry-pick (AID 652057); format: functional, cell-based
[19] = HepG2 cell cytotoxicity, dose response, cytotoxicity control, plate reader, cherry-pick, antagonist series (AID 743416); format: functional, cell-based
[20] = nonselective inhibitors of cellular cAMP signaling, dose response, counter-screen for MC4R biased antagonist project, cell-based, TR-FRET cAMP detection (AID 602305); format: functional;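 note: U2OS cells stimulated with forskolin near its EC80 as the cAMP inducer; potency is for inhibition of forskolin-stimulated cAMP signaling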
[21] = target: T1, Microphthalmia-associated transcription factor (Homo sapiens, UniProt O75030); assay: TRPM1 promoter luciferase signal decrease, dose response, MITF inhibitor project, cell-based, SK-MEL-5, cherry-picked, set 3 (AID 493073); format: functional
T1 sequence (O75030 whole entry): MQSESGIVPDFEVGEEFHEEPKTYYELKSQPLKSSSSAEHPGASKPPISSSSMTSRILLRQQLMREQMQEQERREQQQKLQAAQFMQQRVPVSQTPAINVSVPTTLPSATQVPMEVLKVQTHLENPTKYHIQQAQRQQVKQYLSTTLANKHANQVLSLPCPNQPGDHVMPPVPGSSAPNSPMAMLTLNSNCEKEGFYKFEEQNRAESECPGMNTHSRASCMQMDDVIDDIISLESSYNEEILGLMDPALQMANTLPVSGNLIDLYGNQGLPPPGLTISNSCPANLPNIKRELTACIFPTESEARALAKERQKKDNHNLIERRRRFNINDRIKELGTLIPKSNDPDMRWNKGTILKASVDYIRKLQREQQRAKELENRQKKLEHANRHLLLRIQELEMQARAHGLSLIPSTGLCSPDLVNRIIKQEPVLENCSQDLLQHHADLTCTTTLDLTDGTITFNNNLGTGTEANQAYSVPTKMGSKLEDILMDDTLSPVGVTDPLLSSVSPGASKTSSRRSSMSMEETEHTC

[22] = inhibitors of PGC1a acetylation in cells, dose response, cell-based, cherry-picked samples (AID 720514); format: functional;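 note: potency may reflect raised or lowered acetylation signal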
[23] = HEK293 cell cytotoxicity, dose response, cytotoxicity control, plate reader, cherry-picked samples (AID 743446); format: functional, cell-based
[24] = non-specific cell cytotoxicity, dose response, cytotoxicity control for PAX8 inhibitor project, plate reader, dry powder samples (AID 743021); format: functional, cell-based
Paired box protein Pax-8 = Paired box protein Pax-8 (Homo sapiens, UniProt Q06710); assay: inhibitors of PAX8-driven TPO luciferase reporter, dose response, RMG-I cells, cherry-pick (AID 687027); format: functional, cell-based;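 note: luciferase reporter driven by Pax8 target thyroperoxidase promoter measured by SteadyGlo luminescence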
Chain of Paired box protein Pax-8 (Q06710 whole entry): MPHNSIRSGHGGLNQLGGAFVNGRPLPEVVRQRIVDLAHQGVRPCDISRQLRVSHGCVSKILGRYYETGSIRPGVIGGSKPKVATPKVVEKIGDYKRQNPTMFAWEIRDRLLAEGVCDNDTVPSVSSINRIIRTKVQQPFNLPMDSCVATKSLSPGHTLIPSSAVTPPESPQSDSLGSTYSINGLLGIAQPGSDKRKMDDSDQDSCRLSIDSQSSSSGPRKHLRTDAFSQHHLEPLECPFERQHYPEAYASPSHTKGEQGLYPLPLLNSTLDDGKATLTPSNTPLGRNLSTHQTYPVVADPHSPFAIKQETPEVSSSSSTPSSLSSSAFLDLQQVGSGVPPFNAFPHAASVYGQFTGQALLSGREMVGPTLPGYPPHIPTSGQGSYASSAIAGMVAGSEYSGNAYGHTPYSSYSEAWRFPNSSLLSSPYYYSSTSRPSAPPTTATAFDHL

[25] = target: T2, Histone-lysine N-methyltransferase NSD2 (Homo sapiens, UniProt O96028); format: biochemical
T2 sequence (O96028 whole entry): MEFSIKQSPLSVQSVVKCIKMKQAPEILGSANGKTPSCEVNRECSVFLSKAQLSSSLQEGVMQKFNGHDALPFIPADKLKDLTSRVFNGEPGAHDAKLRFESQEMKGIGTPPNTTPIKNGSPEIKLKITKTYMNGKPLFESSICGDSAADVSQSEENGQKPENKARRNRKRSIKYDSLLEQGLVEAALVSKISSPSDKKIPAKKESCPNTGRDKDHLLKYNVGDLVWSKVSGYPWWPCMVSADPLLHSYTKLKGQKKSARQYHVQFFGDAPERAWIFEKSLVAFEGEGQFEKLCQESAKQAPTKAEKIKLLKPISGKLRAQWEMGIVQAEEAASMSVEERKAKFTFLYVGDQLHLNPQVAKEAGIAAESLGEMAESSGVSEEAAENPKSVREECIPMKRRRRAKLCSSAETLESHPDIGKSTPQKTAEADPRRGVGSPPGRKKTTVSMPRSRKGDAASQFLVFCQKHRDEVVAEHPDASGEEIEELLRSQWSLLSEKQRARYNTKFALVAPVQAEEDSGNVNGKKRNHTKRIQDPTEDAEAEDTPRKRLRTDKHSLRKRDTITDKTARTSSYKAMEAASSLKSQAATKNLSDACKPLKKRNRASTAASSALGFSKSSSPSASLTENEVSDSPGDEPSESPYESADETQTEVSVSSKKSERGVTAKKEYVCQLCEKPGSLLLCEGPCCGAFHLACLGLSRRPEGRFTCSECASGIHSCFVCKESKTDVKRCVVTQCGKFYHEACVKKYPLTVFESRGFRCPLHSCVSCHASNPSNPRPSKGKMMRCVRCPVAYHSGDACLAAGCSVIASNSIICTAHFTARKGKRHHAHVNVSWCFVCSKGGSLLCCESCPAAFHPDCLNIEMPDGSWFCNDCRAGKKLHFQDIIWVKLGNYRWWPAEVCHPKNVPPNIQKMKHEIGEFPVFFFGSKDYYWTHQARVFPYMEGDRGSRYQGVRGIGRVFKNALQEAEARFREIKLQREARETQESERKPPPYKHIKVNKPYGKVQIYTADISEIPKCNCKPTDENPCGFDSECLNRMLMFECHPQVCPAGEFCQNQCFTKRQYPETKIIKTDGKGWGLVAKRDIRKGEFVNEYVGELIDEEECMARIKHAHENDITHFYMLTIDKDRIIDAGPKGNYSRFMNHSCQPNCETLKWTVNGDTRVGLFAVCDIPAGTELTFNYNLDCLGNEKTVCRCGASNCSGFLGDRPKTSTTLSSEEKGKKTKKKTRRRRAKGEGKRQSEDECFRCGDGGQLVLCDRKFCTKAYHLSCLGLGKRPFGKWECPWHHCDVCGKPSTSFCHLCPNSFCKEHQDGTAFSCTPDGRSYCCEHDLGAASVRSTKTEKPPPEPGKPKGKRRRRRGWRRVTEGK

[26] = target: T3, High affinity choline transporter 1 (Homo sapiens, UniProt Q9GZV3); assay: CHT inhibitors, dose response, cell-based, 5-point CRC, membrane potential dye (AID 504840); format: functional
T3 sequence (Q9GZV3 whole entry): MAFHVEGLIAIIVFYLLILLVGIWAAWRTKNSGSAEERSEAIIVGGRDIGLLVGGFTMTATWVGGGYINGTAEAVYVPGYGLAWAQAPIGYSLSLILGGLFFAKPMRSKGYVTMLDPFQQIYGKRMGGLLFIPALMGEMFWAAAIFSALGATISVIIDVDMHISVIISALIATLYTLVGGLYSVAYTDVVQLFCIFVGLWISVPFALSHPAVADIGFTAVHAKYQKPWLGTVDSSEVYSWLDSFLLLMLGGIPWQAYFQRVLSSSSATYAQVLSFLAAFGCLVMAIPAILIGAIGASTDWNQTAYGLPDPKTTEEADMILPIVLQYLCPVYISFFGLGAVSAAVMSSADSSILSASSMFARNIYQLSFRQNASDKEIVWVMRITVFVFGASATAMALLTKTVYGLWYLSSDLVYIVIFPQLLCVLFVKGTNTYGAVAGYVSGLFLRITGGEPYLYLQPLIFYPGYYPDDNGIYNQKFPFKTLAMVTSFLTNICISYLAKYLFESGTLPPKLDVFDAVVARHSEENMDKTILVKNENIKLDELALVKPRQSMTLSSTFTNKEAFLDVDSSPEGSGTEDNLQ

Caspase-6 = Caspase-6 (Homo sapiens, UniProt P55212); assay: human caspase-6 inhibitors, dose response, biochemical, VEID-R110 fluorescence, cherry-pick (AID 720632)
Chain of Caspase-6 (P55212 24-179 limits assumed): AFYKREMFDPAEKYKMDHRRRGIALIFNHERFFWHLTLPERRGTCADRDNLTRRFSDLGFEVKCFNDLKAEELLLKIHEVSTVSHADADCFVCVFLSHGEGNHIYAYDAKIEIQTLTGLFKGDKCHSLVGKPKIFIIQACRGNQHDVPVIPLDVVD
Chain of Caspase-6 (P55212 194-293 limits assumed): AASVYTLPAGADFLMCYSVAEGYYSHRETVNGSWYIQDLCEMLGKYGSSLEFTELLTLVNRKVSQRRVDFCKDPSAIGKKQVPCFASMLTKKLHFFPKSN

[27] = HepG2 cell cytotoxicity, dose response, cytotoxicity control, cherry-picked samples (AID 1159577); format: functional, cell-based
[28] = P. falciparum Dd2 growth inhibitors, dose response, SYBR Green, cherry-picked samples (AID 1159567); format: functional, cell-based
[29] = IGROV1 ovarian cancer cell cytotoxicity, dose response, PAX8 inhibitor project, plate reader, dry powder samples (AID 743043); format: functional, cell-based; conditions: IGROV-1
[30] = A2780 ovarian cancer cell cytotoxicity, dose response, cytotoxicity control, plate reader, dry powder samples (AID 743046); format: functional, cell-based
Cytochrome P450 3A4 = Cytochrome P450 3A4 (Homo sapiens, UniProt P08684);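 note: CYP3A4 tested as one member of a cytochrome P450 panel screen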
Chain of Cytochrome P450 3A4 (P08684 whole entry): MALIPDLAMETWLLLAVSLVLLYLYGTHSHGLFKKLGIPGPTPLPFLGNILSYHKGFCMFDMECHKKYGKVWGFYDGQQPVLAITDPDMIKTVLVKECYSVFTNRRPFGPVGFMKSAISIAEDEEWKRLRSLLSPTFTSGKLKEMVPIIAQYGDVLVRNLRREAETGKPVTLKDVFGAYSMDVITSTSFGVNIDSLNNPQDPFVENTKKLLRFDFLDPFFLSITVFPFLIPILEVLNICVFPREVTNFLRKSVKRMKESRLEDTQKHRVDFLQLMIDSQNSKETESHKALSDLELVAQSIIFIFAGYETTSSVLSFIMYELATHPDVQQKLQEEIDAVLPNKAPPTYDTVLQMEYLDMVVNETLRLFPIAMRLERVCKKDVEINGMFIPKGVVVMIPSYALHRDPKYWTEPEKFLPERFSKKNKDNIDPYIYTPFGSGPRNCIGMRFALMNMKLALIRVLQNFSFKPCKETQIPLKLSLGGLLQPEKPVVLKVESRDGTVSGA

fMet-Leu-Phe receptor = fMet-Leu-Phe receptor (Homo sapiens, UniProt P21462); assay: FPR ligands, dose response (AID 519); format: functional
Chain of fMet-Leu-Phe receptor (P21462 whole entry): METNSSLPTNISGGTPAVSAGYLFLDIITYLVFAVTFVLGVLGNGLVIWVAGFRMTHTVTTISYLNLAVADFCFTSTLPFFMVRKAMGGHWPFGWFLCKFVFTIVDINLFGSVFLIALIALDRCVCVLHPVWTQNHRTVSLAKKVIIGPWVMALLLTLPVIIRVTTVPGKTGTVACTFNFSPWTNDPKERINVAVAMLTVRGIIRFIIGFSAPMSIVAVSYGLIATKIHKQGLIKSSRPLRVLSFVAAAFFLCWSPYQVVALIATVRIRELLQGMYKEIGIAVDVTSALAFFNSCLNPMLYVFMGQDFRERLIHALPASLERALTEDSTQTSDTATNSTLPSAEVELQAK

Cc1ccc([C@@H]2CC(=O)[C@@H]3CN(S(=O)(=O)c4ccccc4C)[C@H](c4ccc(Cl)cc4)C[C@@H]3N2S(=O)(=O)c2ccc(C)cc2)cc1
active: AC50 [1] 3.29 µM | AC50 [2] 0.361 µM | AC50 [3] 0.672 µM | AC50 [4] 36.7 µM

CC(C)CCOc1cccc(OCC(=O)Nc2ccncc2)c1
inactive: IC50 [5] > 80 µM | EC50 [7] > 160 µM | EC50 (cells) > 29.9 µM
active: AC50 [1] 2.72 µM | IC50 (Galanin receptor type 3) 1.06 µM | AC50 [2] 0.571 µM | AC50 [3] 1.07 µM | EC50 [6] 3.63 µM | AC50 [8] 2.62 µM | AC50 [4] 48.5 µM

Cc1noc(C)c1NC(=O)Nc1ccc2c(c1)C(=O)N([C@H](C)CO)C[C@@H](C)[C@H](CN(C)S(C)(=O)=O)OCCCC[C@@H](C)O2
active: AC50 [9] 16.3 µM | AC50 (HEK293) 16.3 µM

C#CC(=O)N(c1ccc(OC)cc1OC)C(C(=O)NC1CCCC1)c1cccs1 (stereo not given)
active: AC50 [10] 6.64 µM | AC50 [11] 0.631 µM | AC50 [1] 1.11 µM | AC50 [12] 8.43 µM | AC50 [13] 9.92 µM | AC50 [14] 4.53 µM | AC50 [2] 7.12 µM | AC50 [16] 13.4 µM | IC50 (Jurkat) 0.32 µM | AC50 [17] 14.4 µM | AC50 [18] 14.8 µM | AC50 [19] 0.839 µM | AC50 [21] 4.73 µM | AC50 [4] 4.23 µM | AC50 [22] 3.91 µM | AC50 [23] 1.87 µM | AC50 [24] 0.678 µM | AC50 (Paired box protein Pax-8) < 0.26 µM
inactive: IC50 (Melanocortin receptor 4) > 64.6 µM | IC50 [15] 37.3 µM | IC50 [20] > 64.6 µM

O=C1N/C(=N\c2ccccc2Cl)S/C1=C\c1cccc([N+](=O)[O-])c1O
active: AC50 [25] 19.2 µM | IC50 [26] 12.6 µM | AC50 (Caspase-6) 11 µM

Cc1ccc(-c2ccc([C@@H]3[C@@H]4CN(Cc5ccccc5F)C[C@H]3N4)cc2)cc1
active: AC50 [27] 10.3 µM | AC50 [28] 4.05 µM | AC50 [24] 13.2 µM | AC50 [29] 55.4 µM | AC50 [30] 63.6 µM

COc1ccc(-c2cc(C(F)(F)F)nc(N3CCCCC3)n2)cc1OC
inactive: Ki (fMet-Leu-Phe receptor) > 66.7 µM
inconclusive: AC50 (Cytochrome P450 3A4) 25.1 µM

CC(C)C(=O)C1=Cc2cccc([N+](=O)[O-])c2OC1N1CCOCC1 (stereo not given)
active: AC50 (Caspase-6) 43.7 µM

CN1C(=O)c2cc(NC(=O)NC3CCCC3)ccc2OC[C@H]2O[C@@H](CC(=O)NCC3CC3)CC[C@@H]21
inactive: AC50 [9] > 57 µM | AC50 (HEK293) > 57 µM
